Experiments:
[1] = molecular target: recombinant human GAA (acid alpha-glucosidase) (Homo sapiens, UniProt P10253); experiment: Acid alpha-glucosidase (GAA) assay (4-methylumbelliferyl-alpha-D-pyranoside substrate, fluorescence); assay type: biochemical
In short: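 IC50 from 4-PL curve fit of percent inhibition, based on fluorescence (365/440 nm) of released methylumbelliferone relative to uninhibited enzyme. Compound dilutions and human GAA incubated 60 min, 37 °C, before 20 min substrate reaction at 37 °C, quenched at pH 10.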

[2] = molecular target: rat sucrase (partially purified alpha-glucosidase from intestinal rat powder) (Rattus norvegicus, UniProt P23739); experiment: Intestinal alpha-glucosidase assay, sucrose substrate (Glucose GO Kit); assay type: biochemical
Sequence of rat sucrase (partially purified alpha-glucosidase from intestinal rat powder) (P23739 whole entry): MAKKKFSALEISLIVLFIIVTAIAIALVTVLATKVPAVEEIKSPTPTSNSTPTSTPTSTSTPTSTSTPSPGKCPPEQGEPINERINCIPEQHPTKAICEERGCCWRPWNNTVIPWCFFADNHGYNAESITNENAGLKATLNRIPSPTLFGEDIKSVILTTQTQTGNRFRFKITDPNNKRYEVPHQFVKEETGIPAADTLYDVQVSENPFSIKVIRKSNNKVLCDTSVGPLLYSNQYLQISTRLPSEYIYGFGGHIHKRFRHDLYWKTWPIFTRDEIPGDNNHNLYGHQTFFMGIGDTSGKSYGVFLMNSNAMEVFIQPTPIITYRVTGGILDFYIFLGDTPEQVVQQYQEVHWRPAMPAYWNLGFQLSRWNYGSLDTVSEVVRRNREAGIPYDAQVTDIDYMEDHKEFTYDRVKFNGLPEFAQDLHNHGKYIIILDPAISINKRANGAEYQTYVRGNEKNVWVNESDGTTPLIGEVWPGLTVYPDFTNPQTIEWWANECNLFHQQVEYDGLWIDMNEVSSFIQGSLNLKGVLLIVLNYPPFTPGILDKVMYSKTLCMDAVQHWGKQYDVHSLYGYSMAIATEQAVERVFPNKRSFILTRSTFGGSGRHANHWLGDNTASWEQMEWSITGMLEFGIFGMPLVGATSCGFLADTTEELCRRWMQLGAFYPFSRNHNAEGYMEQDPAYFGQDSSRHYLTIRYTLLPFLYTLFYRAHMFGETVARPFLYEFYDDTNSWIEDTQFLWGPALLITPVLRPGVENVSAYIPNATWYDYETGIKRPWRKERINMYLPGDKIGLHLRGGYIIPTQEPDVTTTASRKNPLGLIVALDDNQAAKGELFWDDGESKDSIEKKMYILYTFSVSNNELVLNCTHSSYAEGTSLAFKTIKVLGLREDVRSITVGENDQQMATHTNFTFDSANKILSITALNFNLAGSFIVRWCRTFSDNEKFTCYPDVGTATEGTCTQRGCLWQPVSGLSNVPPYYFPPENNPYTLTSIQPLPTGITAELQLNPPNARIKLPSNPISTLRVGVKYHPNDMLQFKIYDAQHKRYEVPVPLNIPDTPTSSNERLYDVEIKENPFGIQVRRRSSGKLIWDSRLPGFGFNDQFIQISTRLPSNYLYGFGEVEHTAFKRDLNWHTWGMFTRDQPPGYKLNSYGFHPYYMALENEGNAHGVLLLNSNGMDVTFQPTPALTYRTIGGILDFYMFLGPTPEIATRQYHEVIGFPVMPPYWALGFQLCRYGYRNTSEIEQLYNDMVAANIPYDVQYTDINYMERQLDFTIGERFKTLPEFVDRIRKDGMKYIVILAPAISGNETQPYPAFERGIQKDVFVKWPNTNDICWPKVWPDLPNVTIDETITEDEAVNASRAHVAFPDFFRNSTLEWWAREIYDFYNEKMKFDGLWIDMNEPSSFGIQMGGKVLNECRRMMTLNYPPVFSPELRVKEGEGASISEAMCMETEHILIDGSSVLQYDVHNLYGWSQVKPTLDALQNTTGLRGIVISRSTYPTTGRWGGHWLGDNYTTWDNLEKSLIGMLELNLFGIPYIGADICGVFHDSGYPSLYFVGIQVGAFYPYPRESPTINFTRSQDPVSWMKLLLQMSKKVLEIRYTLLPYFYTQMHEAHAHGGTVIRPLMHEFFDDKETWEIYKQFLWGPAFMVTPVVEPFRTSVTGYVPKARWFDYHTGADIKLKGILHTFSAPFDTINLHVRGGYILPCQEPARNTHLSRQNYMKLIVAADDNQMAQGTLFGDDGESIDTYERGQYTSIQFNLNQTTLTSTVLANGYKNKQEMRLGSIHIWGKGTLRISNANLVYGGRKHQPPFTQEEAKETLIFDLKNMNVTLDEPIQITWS
In short: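 Glucose release is the read-out: compounds at multiple dilutions are first held with partially purified rat intestinal alpha-glucosidase for 60 min at 37 °C, after which maltose or sucrose substrate reacts for 30 min at 37 °C before a 5 min 90 °C stop. IC50 comes from a four-parameter logistic fit.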

Structure (SMILES)	IC50 [1]	IC50 [2]
COc1cc(NCCc2ccc(CCN3C[C@H](O)[C@@H](O)[C@H](O)[C@H]3CO)cc2)cc(-c2cccnn2)c1 [Compound 1157, (2R,3R,4R,5S)-2-(hydroxymethyl)-1-{2-[4-(2-{[3-methoxy-5-(pyridazin-3-yl)phenyl]amino}ethyl)phenyl]ethyl}piperidine-3,4,5-triol]	292 nM	228 nM
O=[N+]([O-])c1cc(-c2ccccc2)ccc1NCCCCCCN1C[C@H](O)[C@@H](O)[C@H](O)[C@H]1CO [Compound 1138, (2R,3R,4R,5S)-2-(hydroxymethyl)-1-[6-({3-nitro-[1,1′-biphenyl]-4-yl}amino)hexyl]piperidine-3,4,5-triol]	< 1 nM	< 1 nM
CS(=O)(=O)Nc1ccc(NCCCCCCN2C[C@H](O)[C@@H](O)[C@H](O)[C@H]2CO)c([N+](=O)[O-])c1 [Compound 1300, N-[3-nitro-4-({6-[(2R,3R,4R,5S)-3,4,5-trihydroxy-2-(hydroxy-methyl)piperidin-1-yl]hexyl}amino)phenyl]methanesulfonamide]	20 nM	52 nM
Cc1nc2cc(-c3ncccn3)ccc2n1CCCCCCN1C[C@H](O)[C@@H](O)[C@H](O)[C@H]1CO [Compound 1339, (2R,3R,4R,5S)-2-(hydroxymethyl)-1-{6-[2-methyl-5-(pyrimidin-2-yl)-1H-1,3-benzodiazol-1-yl]hexyl}piperidine-3,4,5-triol]	240 nM	49 nM

Source: US20250197372A1 (priority 2020, published 2025)
